Laboratory results from US20150148311A1, “NON-SYSTEMIC TGR5 AGONISTS” (Ardelyx, Inc., priority 2011, published 2015).
Read-outs that look alike come from different tables or passages of the source.

Target: T1, human TGR5 (Homo sapiens, UniProt Q8TDU6)
T1 construct: expressed in transfected cells
T1 sequence (Q8TDU6 1-330): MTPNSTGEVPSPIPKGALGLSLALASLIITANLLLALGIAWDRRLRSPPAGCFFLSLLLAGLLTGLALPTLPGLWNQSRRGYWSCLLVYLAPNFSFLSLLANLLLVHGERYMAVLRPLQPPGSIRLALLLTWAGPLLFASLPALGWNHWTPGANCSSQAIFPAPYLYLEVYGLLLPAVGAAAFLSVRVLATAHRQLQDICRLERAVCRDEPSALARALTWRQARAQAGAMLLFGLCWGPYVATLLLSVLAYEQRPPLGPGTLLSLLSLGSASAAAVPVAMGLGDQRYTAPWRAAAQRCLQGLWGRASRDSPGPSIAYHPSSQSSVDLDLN
Test: Cell-based TGR5 assay, HEK293 cells stably expressing human TGR5, cAMP by HTRF
Settings: 0.05 nM to 10 μM
Experimental: Two primary cell based screens were performed. The first utilized HEK293 cells stably transfected to heterologously express human TGR5. The second screen used the human caecum carcinoma cell line NCI-H716 which endogenously expresses human TGR5. In both assays, cells are treated with candidate TGR5 activators and assessed for the increased intercellular levels of cAMP.
HEK293 cells were transfected with a vector that expresses a gene encoding human TGR5, and a stable cell line was isolated using drug selection following standard techniques. Cells were grown overnight at 37° C./5% CO2 prior to assay.
TGR5-mediated cAMP generation was measured using a homogeneous time resolved fluorescence (HTRF) detection method (Cisbio). Test compounds were dissolved in DMSO to a final concentration of 10 mM. Serial 3-fold dilutions of the stock solution were made in DMSO, and these solutions were diluted 100-fold into Hanks Balanced Salt Solution supplemented with 10 mM HEPES pH 7.4 and 0.5 mM isobutyl methylxanthine (IBMX). Prior to assay, culture medium was replaced with fresh medium, and test compounds diluted in HBSS/HEPES/IBMX were added to the cells and incubated at 37° C. for 30 minutes.
Following incubation with test compounds, cAMP was detected through the successive addition of cAMP labeled with the modified allophyocyanin dye d2 (cAMP-d2) and cryptate-labeled anti-cAMP in lysis buffer, and reading HTRF per the manufacturer's instructions. A standard curve was used to convert the raw HTRF data into [cAMP].

[1] = HEK293 cells stably expressing human TGR5, 30 min at 37 C, read-out: pEC50 Human TGR5 (converted)

O=C(NC[C@H](O)[C@@H](O)[C@H](O)[C@H](O)CO)c1ccc(CCc2cc(Cl)c(CN3CSC[C@H]3C(=O)N3CCN(C4CC4)c4ccccc43)cc2Cl)cn1 [Example 202] was tested, and the EC50 [1] was 126 to 1000 nM.
Work on CN(C[C@H](O)[C@@H](O)[C@H](O)[C@H](O)CO)C(=O)c1cnn(Cc2cc(Cl)c(CN3CSC[C@H]3C(=O)N3CCN(C4CC4)c4ccccc43)cc2Cl)c1 [Example 235] yielded an EC50 [1] of 126 to 1000 nM.
Compound CN(C)c1nc(NCCCCCc2cc(Cl)c(CN3CSC[C@H]3C(=O)N3CCN(C4CC4)c4ccccc43)cc2Cl)nc(NC(CO)(CO)CO)n1 [Example 200] has an EC50 [1] of 126 to 1000 nM.
O=C(CCCCc1cc(Cl)c(CN2C[S+]([O-])C[C@H]2C(=O)N2CCN(C3CC3)c3ccccc32)cc1Cl)NC[C@H](O)[C@@H](O)[C@H](O)[C@H](O)CO (stereo partly shown) [Example 221] showed an EC50 [1] of 126 to 1000 nM.
O=C([C@@H]1CSCN1Cc1c(Cl)ccc(Cl)c1O)N1CCN(C2CC2)c2ccccc21 [Example 170, (R)-(4-cyclopropyl-3,4-dihydroquinoxalin-1(2H)-yl)(3-(3,6-dichloro-2-hydroxybenzyl)thiazolidin-4-yl)methanone] showed an EC50 [1] of 126 to 1000 nM.
COC(=O)[C@@H](CCCCN)NC(=O)NCCCCCc1cc(Cl)c(CN2CSC[C@H]2C(=O)N2CCN(C3CC3)c3ccccc32)cc1Cl [Example 275] gave an EC50 [1] of 126 to 1000 nM.
CN(C[C@H](O)C(O)[C@H](O)[C@H](O)CO)C(=O)CC[C@H](NC(=O)CCCCc1cc(Cl)c(CN2CSC[C@H]2C(=O)N2CCN(C3CC3)c3ccccc32)cc1Cl)C(=O)N(C)C[C@H](O)[C@@H](O)[C@H](O)[C@H](O)CO (stereo partly shown) [Example 280] was tested, and the EC50 [1] was 126 to 1000 nM.
For CN(C[C@H](O)[C@@H](O)[C@H](O)[C@H](O)CO)C(=O)CCc1cc(Cl)c(CN2C[C@@H](F)C[C@H]2C(=O)N2CCN(C3CC3)c3ccccc32)cc1Cl [Example 266], the EC50 [1] was 1260 to 50100 nM.
In the case of CN(C[C@H](O)[C@@H](O)[C@H](O)[C@H](O)CO)C(=O)c1ccc(COc2cc(Cl)c(CN3CSC[C@H]3C(=O)N3CCN(C4CC4)c4ccccc43)cc2Cl)cc1 [Example 196], the EC50 [1] is reported as 126 to 1000 nM.
With CN(C[C@H](O)[C@@H](O)[C@H](O)[C@H](O)CO)C(=O)c1ccc(COc2cc(Cl)c(CN3CSC[C@H]3C(=O)N3CCN(C4CC4)c4ccccc43)cc2Cl)o1 [Example 203] the EC50 [1] was 126 to 1000 nM.
Compound O=C(C1SCCN1Cc1cc(Cl)ccc1Cl)N1CCN(C2CC2)c2ccccc21 (stereo not shown) [Example 291] has an EC50 [1] of 1260 to 50100 nM.
For O=C(NCCCCc1cc(Cl)c(OCC2(C(=O)N3CCN(C4CC4)c4ccccc43)CC2)cc1Cl)NC[C@H](O)[C@@H](O)[C@H](O)[C@H](O)CO [Example 251], the EC50 [1] was 126 to 1000 nM.
CN(C[C@H](O)[C@@H](O)[C@H](O)[C@H](O)CO)C(=O)CCCCc1ccc(Cl)c(CNC2(C(=O)N3CCN(C4CC4)c4ccccc43)CC2)c1 [Example 262] was tested, and the EC50 [1] was 1260 to 50100 nM.
With O=C([C@@H]1CSCN1Cc1cc(I)ccc1C(F)(F)F)N1CCN(C2CC2)c2ccccc21 [Example 270] the EC50 [1] was 126 to 1000 nM.
In the case of CN(C[C@H](O)[C@@H](O)[C@H](O)[C@H](O)CO)C(=O)CCCCc1ccc(C(F)(F)F)c(CN2CSC[C@H]2C(=O)N2CCN(C3CC3)c3ccccc32)c1 [Example 269], the EC50 [1] is reported as 1260 to 50100 nM.
With O=C(O)CNC(=O)[C@H](CS)NC(=O)CC[C@H](NC(=O)CCCCc1cc(Cl)c(CN2CSC[C@H]2C(=O)N2CCN(C3CC3)c3ccccc32)cc1Cl)C(=O)O [Example 222] the EC50 [1] was under 100 nM.
In the case of O=C(NC[C@H](O)[C@@H](O)[C@H](O)[C@H](O)CO)c1ccc(OCCCc2cc(Cl)c(CN3CSC[C@H]3C(=O)N3CCN(C4CC4)c4ccccc43)cc2Cl)cc1 [Example 286], the EC50 [1] is reported as 126 to 1000 nM.
O=C(NC[C@H](O)[C@@H](O)[C@H](O)[C@H](O)CO)c1cnn(Cc2cc(Cl)c(CN3CSC[C@H]3C(=O)N3CCN(C4CC4)c4ccccc43)cc2Cl)c1 [Example 234] gave an EC50 [1] of under 100 nM.
Compound O=C(N1CCN(C2CC2)c2ccccc21)C1(NCc2c(Cl)ccc(Cl)c2O)CC1 [Example 168, (4-cyclopropyl-3,4-dihydroquinoxalin-1(2H)-yl)(1-((3,6-dichloro-2-hydroxybenzyl)amino)cyclopropyl)methanone] has an EC50 [1] of 126 to 1000 nM.
O=C(O)CN1CCN(C(=O)NCCCCCc2cc(Cl)c(CN3CSC[C@H]3C(=O)N3CCN(C4CC4)c4ccccc43)cc2Cl)CC1 [Example 281] showed an EC50 [1] of under 100 nM.
O=C(CCCCc1ccc(C(F)(F)F)c(CN2CSC[C@H]2C(=O)N2CCN(C3CC3)c3ccccc32)c1)NC[C@H](O)[C@@H](O)[C@H](O)[C@H](O)CO [Example 271] showed an EC50 [1] of 1260 to 50100 nM.
Compound O=C(O)c1cnn(Cc2cc(Cl)c(CN3CSC[C@H]3C(=O)N3CCN(C4CC4)c4ccccc43)cc2Cl)c1 [Example 232] has an EC50 [1] of 1260 to 50100 nM.
Work on C[C@@H](NC(=O)[C@@H](C)NC(=O)[C@@H](C)NC(=O)c1ccc(COc2cc(Cl)c(CN3CSC[C@H]3C(=O)N3CCN(C4CC4)c4ccccc43)cc2Cl)cc1)C(=O)O [Example 207] yielded an EC50 [1] of 126 to 1000 nM.
In the case of O=C(O)CN(C[C@H](O)[C@@H](O)[C@H](O)[C@H](O)CO)C(=O)CCCCc1cc(Cl)c(CN2CSC[C@H]2C(=O)N2CCN(C3CC3)c3ccccc32)cc1Cl [Example 226], the EC50 (pEC50 Human TGR5, HEK293 cells stably expressing human TGR5, 30 min at 37 C) is reported as 126 to 1000 nM.
Compound CN(C(=O)[C@@H]1CSCN1Cc1cc(Cl)ccc1Cl)c1ccccc1OC1CC1 [Example 289] has an EC50 [1] of 126 to 1000 nM.
In the case of CN(C[C@H](O)[C@@H](O)[C@@H](O)[C@H](O)CO)C(=O)CCc1cc(Cl)c(CN2C[C@@H](F)C[C@H]2C(=O)N2CCN(C3CC3)c3ccccc32)cc1Cl [Example 267], the EC50 [1] is reported as 1260 to 50100 nM.
Compound COC(=O)[C@H](CCCCN)NC(=O)NCCCCCc1cc(Cl)c(CN2CSC[C@H]2C(=O)N2CCN(C3CC3)c3ccccc32)cc1Cl [Example 274] has an EC50 [1] of 126 to 1000 nM.
O=C(NCCOCCOCCOCCNC(=O)c1ccc(COc2cc(Cl)c(CN3CSC[C@H]3C(=O)N3CCN(C4CC4)c4ccccc43)cc2Cl)cc1)c1ccc(COc2cc(Cl)c(CN3CSC[C@@H]3C(=O)N3CCN(C4CC4)c4ccccc43)cc2Cl)cc1 [Example 190] showed an EC50 [1] of 1260 to 50100 nM.
In the case of CN(CCO)c1nc(NCCCCCc2cc(Cl)c(CN3CSC[C@H]3C(=O)N3CCN(C4CC4)c4ccccc43)cc2Cl)cc(C(=O)NC[C@H](O)[C@@H](O)[C@H](O)[C@H](O)CO)n1 [Example 225], the EC50 [1] is reported as under 100 nM.
O=C(NC[C@@H](O)[C@H](O)[C@@H](O)[C@@H](O)CO)C(CCCc1cc(Cl)c(CN2CSC[C@H]2C(=O)N2CCN(C3CC3)c3ccccc32)cc1Cl)C(=O)NC[C@@H](O)[C@H](O)[C@@H](O)[C@@H](O)CO [Example 174, 2-(3-(2,5-dichloro-4-(((R)-4-(4-cyclopropyl-1,2,3,4-tetrahydroquinoxaline-1-carbonyl)thiazolidin-3-yl)methyl)phenyl)propyl)-N1,N3-bis((2R,3S,4S,5S)-2,3,4,5,6-pentahydroxyhexyl)malonamide] showed an EC50 [1] of 1260 to 50100 nM.
With O=C(N1CCN(C2CC2)c2ccccc21)C1(NCc2cc(I)ccc2C(F)(F)F)CC1 [Example 164, (4-cyclopropyl-3,4-dihydroquinoxalin-1(2H)-yl)(1-(5-iodo-2-(trifluoromethyl)benzylamino)cyclopropyl)methanone] the EC50 [1] was 126 to 1000 nM.
With CN(C(=O)[C@@H]1CSCN1Cc1cc(Cl)ccc1Cl)c1ccccc1OC1CCC1 [Example 290] the EC50 [1] was 126 to 1000 nM.
With O=C(NCCCc1cc(Cl)c(OCC2(C(=O)N3CCN(C4CC4)c4ccccc43)CC2)cc1Cl)NC[C@H](O)[C@@H](O)[C@H](O)[C@H](O)CO [Example 250] the EC50 [1] was 126 to 1000 nM.
Compound CN(C[C@H](O)[C@@H](O)[C@H](O)[C@H](O)CO)C(=O)c1cccc(OCc2cc(Cl)c(CN3CSC[C@H]3C(=O)N3CCN(C4CC4)c4ccccc43)cc2Cl)c1 [Example 230] has an EC50 [1] of 126 to 1000 nM.
